Patent publication US8785600B2, “Anti-GCC antibody molecules and related compositions and methods” (Millennium Pharmaceuticals, Inc., priority 2009, dated 2014)

Legend:
[1] = system: GCC-expressing cells (T84 cells compared to MCF-7 cells; vector control cells); experiment: Internalization assay (immunofluorescence microscopy); type: cell-based, human; conditions: 10 μg/ml, 37° C.
Protocol: Internalization of anti-GCC antibody molecules was tested in both GCC-expressing cells and vector control cells, using immunofluorescence microscopy. Cells were grown on coverslips and placed on ice for 10 minutes prior to incubation with 10 μg/ml antibody in cold culture medium for 20 minutes on ice. For internalization, antibody-containing medium was replaced with fresh culture medium and the cells were shifted to 37° C. for 2-3 hours or maintained on ice. After rinsing in PBS and a brief fixation in 4% paraformaldehyde at room temperature, cells were permeabilized for 15 min in 0/5% TRITON X-100. The localization of the test antibody was determined using a fluorescently labeled anti-IgG antibody by laser scanning confocal microscopy. Antibody molecules localized to the cell surface of GCC-expressing cells when on ice.
Most of the antibodies generated herein were tested in a number of the assays described above. (T84=human colon tumor cells, MCF7=human breast tumor cells, WB=western blot, IP=immunoprecipitation, IHC=immunohistochemistry; internalization used T84 cells compared to MCF-7 cells)

[2] = target: T1, GCC ECD truncation mutants expressed in 293 cells (Homo sapiens, UniProt P25092); experiment: Binding to GCC ECD truncation mutants (IP / Western blot); conditions: Δ1-32
T1 construct: Truncation mutants of the GCC ECD were generated (FL mature peptide and 8 truncations); expressed in transfected cells; host or cells: 293 cells (lysates, immunoprecipitation then anti-FLAG western blot)
T1 sequence (P25092 33-430, stated change not applied): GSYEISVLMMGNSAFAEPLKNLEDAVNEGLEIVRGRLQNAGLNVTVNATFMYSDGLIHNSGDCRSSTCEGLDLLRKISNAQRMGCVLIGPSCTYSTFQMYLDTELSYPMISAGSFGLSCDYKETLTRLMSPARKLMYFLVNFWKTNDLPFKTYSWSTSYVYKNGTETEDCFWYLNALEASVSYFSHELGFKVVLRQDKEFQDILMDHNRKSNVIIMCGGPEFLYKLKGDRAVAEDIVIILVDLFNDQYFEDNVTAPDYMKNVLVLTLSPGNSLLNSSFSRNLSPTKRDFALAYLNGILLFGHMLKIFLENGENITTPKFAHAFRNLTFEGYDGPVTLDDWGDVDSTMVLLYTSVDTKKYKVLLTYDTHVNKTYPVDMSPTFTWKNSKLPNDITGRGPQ

[3] = target: T2, mouse GCC (Mus musculus, UniProt Q3UWA6); experiment: Cross-reactivity with GCC orthologs (ELISA); type: binding
T2 sequence (Q3UWA6 20-1072): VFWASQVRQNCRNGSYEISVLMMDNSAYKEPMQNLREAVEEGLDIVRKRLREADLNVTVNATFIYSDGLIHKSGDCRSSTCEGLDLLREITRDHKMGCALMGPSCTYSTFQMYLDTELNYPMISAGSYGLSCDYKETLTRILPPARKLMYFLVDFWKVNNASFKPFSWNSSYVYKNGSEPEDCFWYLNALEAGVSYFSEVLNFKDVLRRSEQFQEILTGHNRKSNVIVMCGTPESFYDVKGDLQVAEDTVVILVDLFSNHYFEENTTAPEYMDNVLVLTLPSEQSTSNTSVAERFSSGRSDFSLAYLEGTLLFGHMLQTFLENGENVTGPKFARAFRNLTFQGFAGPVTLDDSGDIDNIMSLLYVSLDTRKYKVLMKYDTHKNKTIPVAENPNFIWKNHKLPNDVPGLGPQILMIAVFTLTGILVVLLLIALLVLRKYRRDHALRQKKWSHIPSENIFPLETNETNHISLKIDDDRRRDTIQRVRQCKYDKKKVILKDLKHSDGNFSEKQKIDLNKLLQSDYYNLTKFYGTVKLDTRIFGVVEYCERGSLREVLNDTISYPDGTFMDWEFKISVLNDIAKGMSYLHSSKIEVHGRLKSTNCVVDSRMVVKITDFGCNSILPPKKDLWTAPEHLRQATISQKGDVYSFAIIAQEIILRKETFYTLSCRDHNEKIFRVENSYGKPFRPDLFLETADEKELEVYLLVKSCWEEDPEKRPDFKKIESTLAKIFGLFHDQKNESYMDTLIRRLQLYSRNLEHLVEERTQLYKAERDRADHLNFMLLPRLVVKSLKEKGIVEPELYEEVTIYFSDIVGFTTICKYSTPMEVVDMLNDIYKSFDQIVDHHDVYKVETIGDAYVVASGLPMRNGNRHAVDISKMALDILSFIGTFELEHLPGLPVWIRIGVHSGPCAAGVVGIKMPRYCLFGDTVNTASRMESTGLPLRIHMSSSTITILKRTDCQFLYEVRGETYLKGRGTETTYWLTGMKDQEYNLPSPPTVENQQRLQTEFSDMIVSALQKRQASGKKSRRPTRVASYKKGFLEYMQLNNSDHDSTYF
Description: FIG. 4 depicts ELISA binding assays to test antibody cross-reactivity of GCC orthologs.

[4] = system: CT26 hGCC/luc #32 cells; experiment: Pilot efficacy study with naked antibody in CT26 hGCC/luc #32 disseminated model; conditions: for Lung weight, T test P vs. vehicle: end of study

With “5F9: Human anti-GCC mAb (IgG2, kappa) of hybridoma 5F9, ATCC PTA-8132; VH SEQ ID NO:18, VL SEQ ID NO:20; also engineered as IgG1” the “Internalization (localization of antibody by confocal microscopy)” value [1] was “punctuate staining within the cell membrane, indicative of internalization”, the “Binding to GCC ECD truncation mutant” value [2] was “binds cells with the Δ1-32 mutation” and the “Binding to mouse GCC” value [3] was “does not bind”. For the same substance, the “Lung weight, T test P vs. vehicle” value ([4]; 10 mg/kg) was under 0.01, the “In vivo MRI of lungs” value ([4]; 40 mg/kg) was “normal lung presentation was seen without evidence of tumor” and the “T/C (treatment/control)” value ([4]; 40 mg/kg and 10 mg/kg, 1×10^5 cells/mouse, day 34p.i, vs vehicle) was 0.04 to 0.05. The “Lung weight, T test P vs. vehicle” value ([4]; 40 mg/kg) was under 0.05, the “T/C compared to the 209 group” value ([4]; 1×10^5 cells/mouse, day 34p.i) was 0.18 to 0.14 and the “Benefit in 5×10^5 groups” value ([4]; 5×10^5 cells/mouse) was “No benefit was seen”.
